Measured values as given in ChEMBL document CHEMBL1201862, “PubChem BioAssay data set” (2004).
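Cultured in 96-well plates, cells were exposed to test compound for 48 hours across five concentrations. Abbreviation: GI50, concentration required for 50% inhibition of growth.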 Calls of active or inactive are those of the source. Cut-off read from the data, not from the text of the source: active = GI50 up to about 1.1 µM and inactive = higher.

Tests used:
Assay in all cases: DTP human tumour cell line panel, 48 h
[1] = test system: 786-0
[2] = test system: A498
[3] = test system: CAKI-1
[4] = test system: CCRF-CEM
[5] = test system: COLO 205
[6] = test system: HCT-116
[7] = test system: HT-29
[8] = test system: K562
[9] = test system: M14
[10] = test system: MCF7
[11] = test system: MDA-MB-435
[12] = test system: NCI-H23
[13] = test system: RXF 393
[14] = test system: SF-268
[15] = test system: SK-OV-3
[16] = test system: SNB-75
[17] = test system: T47D
[18] = test system: TK-10
[19] = test system: UACC-62
[20] = test system: OVCAR-5

Measured: GI50

C/C(CC(O)(C(F)(F)F)C(F)(F)F)=N\NC(N)=O
inactive: [1] > 10 µM | [2] > 10 µM | [3] > 10 µM | [4] > 10 µM | [5] > 10 µM | [6] > 10 µM | [7] > 10 µM | [8] > 10 µM | [9] > 10 µM | [10] > 10 µM | [11] > 10 µM | [12] > 10 µM | [13] > 10 µM | [14] > 10 µM | [15] > 10 µM | [16] > 10 µM | [17] > 10 µM | [18] > 10 µM | [19] > 10 µM

CC(C)OP(=O)(OC(C)C)C(C(C)C)N(C)/C(N)=N/C#N (stereo not given)
inactive: [1] > 10 µM | [2] > 100 µM | [3] > 100 µM | [4] > 100 µM | [5] > 100 µM | [6] > 100 µM | [7] > 100 µM | [8] > 100 µM | [9] > 100 µM | [10] > 100 µM | [11] > 100 µM | [12] > 100 µM | [13] > 100 µM | [14] > 100 µM | [15] > 100 µM | [16] > 100 µM | [17] > 100 µM | [18] > 100 µM | [19] > 100 µM

CC(=O)NC1=C(C)C(=O)c2c(nc3n2CC[C@H]3OC(C)=O)C1=O
inactive: [1] 1.95 µM | [2] 16.8 µM | [3] 3.98 µM | [5] 1.91 µM | [6] 1.3 µM | [7] 2.47 µM | [9] 2.06 µM | [10] 1.49 µM | [12] 2.61 µM | [20] 2.96 µM | [13] 1.73 µM | [14] 2.87 µM | [16] 3.13 µM | [18] 8.13 µM | [19] 1.69 µM
active: [4] 0.33 µM | [8] 1.12 µM | [11] 0.774 µM | [17] 0.238 µM

COC1=C(OC)C(=O)C(Cc2c(-c3ccccc3)nc3sc(Cl)cn23)=C(C)C1=O
inactive: [1] 19.6 µM | [2] 20.2 µM | [3] 21 µM | [4] 13.7 µM | [5] 18.7 µM | [6] 16.4 µM | [7] 20.1 µM | [8] 23.9 µM | [9] 15.8 µM | [10] 20.3 µM | [11] 16.5 µM | [12] 17.8 µM | [20] 28.2 µM | [13] 17.1 µM | [14] 18.8 µM | [15] 18.5 µM | [17] 23.4 µM | [18] 20 µM | [19] 11.9 µM

CC1=NN(c2nc(N)nc(/C(C#N)=C\C3COc4ccccc4C3=O)n2)C(C)(C)C1 (stereo not given)
inactive: [1] 19.2 µM | [2] 17.9 µM | [3] 23.6 µM | [4] 1.9 µM | [6] 20.6 µM | [7] 26.5 µM | [8] 32.1 µM | [9] 23.7 µM | [10] 32.4 µM | [11] 32.1 µM | [12] 27 µM | [20] 35.6 µM | [13] 16.4 µM | [14] 21.1 µM | [15] 25.8 µM | [17] 18.2 µM | [18] 27.6 µM

O=c1[nH]nc(-c2ccccc2)n1/N=C/c1cccs1
inactive: [1] 91.4 µM | [2] 54.2 µM | [3] > 100 µM | [4] 43.1 µM | [5] 19.5 µM | [6] 36.7 µM | [7] 65.5 µM | [8] 38.1 µM | [9] > 100 µM | [10] 46.6 µM | [11] 28.2 µM | [12] 36.6 µM | [20] > 100 µM | [13] 37.3 µM | [14] > 100 µM | [15] > 100 µM | [16] 49.7 µM | [17] 38.1 µM | [19] 46.7 µM

CC(=O)C(C(C)=O)=C1CCCC(O)O1 (stereo not given)
inactive: [1] > 100 µM | [2] > 100 µM | [4] 48.5 µM | [5] > 100 µM | [6] > 100 µM | [7] > 100 µM | [8] > 100 µM | [9] > 100 µM | [10] > 100 µM | [11] > 100 µM | [12] > 100 µM | [20] > 100 µM | [13] > 100 µM | [14] > 100 µM | [15] > 100 µM | [16] > 100 µM | [17] > 100 µM | [18] > 100 µM | [19] > 100 µM

C=C1c2nc3ccccc3n2C=C(c2ccc(OC)cc2)N1c1ccc(OCCN2CCOCC2)cc1
inactive: [1] 36.9 µM | [2] 66.8 µM | [3] 90.6 µM | [4] 3.73 µM | [5] 10.8 µM | [6] 21.9 µM | [7] 6.24 µM | [8] 7.62 µM | [9] 9.73 µM | [10] 12.3 µM | [11] 24.3 µM | [12] > 25.2 µM | [20] > 100 µM | [13] 71.6 µM | [15] > 100 µM | [16] > 100 µM | [17] > 100 µM | [18] 18.1 µM | [19] 20.4 µM
